Results as given in ChEMBL document CHEMBL1201862, “PubChem BioAssay data set” (2004).
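Step 1: Grow cells in 96-well plates. Step 2: Expose to compound for 48 hours at 5 concentrations. Step 3: Interpolate endpoints linearly; if unreached, use highest concentration. Abbreviation: GI50, concentration required for 50% inhibition of growth.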 Activity calls are given as the source filed them. Cut-off read from the data, not from the text of the source: active = GI50 up to about 1.1 µM and inactive = higher.

Key:
Test in all cases: inhibition of tumour cell growth, NCI panel, 48 h
T47D = tested on: T47D
SK-MEL-28 = tested on: SK-MEL-28
SNB-75 = tested on: SNB-75
SK-OV-3 = tested on: SK-OV-3
HL-60 = tested on: HL-60
SK-MEL-5 = tested on: SK-MEL-5
OVCAR-5 = tested on: OVCAR-5
MDA-N = tested on: MDA-N
HT-29 = tested on: HT-29
SNB-19 = tested on: SNB-19
UACC-62 = tested on: UACC-62
SN12C = tested on: SN12C
HCC 2998 = tested on: HCC 2998
LOX IMVI = tested on: LOX IMVI
SW-620 = tested on: SW-620
IGROV-1 = tested on: IGROV-1
HOP-62 = tested on: HOP-62
CAKI-1 = tested on: CAKI-1
DU-145 = tested on: DU-145
KM12 = tested on: KM12
786-0 = tested on: 786-0
SF-268 = tested on: SF-268
NCI-H460 = tested on: NCI-H460
NCI-H226 = tested on: NCI-H226
MDA-MB-231 = tested on: MDA-MB-231
UACC-257 = tested on: UACC-257
OVCAR-4 = tested on: OVCAR-4
MCF7 = tested on: MCF7
A549 = tested on: A549
OVCAR-8 = tested on: OVCAR-8
MDA-MB-435 = tested on: MDA-MB-435
EKVX = tested on: EKVX
HCT-116 = tested on: HCT-116
SR = tested on: SR
ACHN = tested on: ACHN
MOLT-4 = tested on: MOLT-4
NCI-H522 = tested on: NCI-H522
A498 = tested on: A498
HCT-15 = tested on: HCT-15
SF-295 = tested on: SF-295
K562 = tested on: K562
NCI/ADR-RES = tested on: NCI/ADR-RES
BT-549 = tested on: BT-549
HOP-92 = tested on: HOP-92
Malme-3M = tested on: Malme-3M
UO-31 = tested on: UO-31
CCRF-CEM = tested on: CCRF-CEM
NCI-H23 = tested on: NCI-H23
OVCAR-3 = tested on: OVCAR-3
U-251 = tested on: U-251
M14 = tested on: M14
Hs-578T = tested on: Hs-578T
TK-10 = tested on: TK-10
PC-3 = tested on: PC-3
RXF 393 = tested on: RXF 393
COLO 205 = tested on: COLO 205
SF-539 = tested on: SF-539
RPMI-8226 = tested on: RPMI-8226
SK-MEL-2 = tested on: SK-MEL-2

## Cn1c2ccccc2c2c(=S)c3ccccc3ccc21
T47D
  GI50: 20.7 µM (inactive)
SK-MEL-28
  GI50: > 100 µM (inactive)
SNB-75
  GI50: 24.6 µM (inactive)
SK-OV-3
  GI50: > 100 µM (inactive)
HL-60
  GI50: > 100 µM (inactive)
SK-MEL-5
  GI50: 44.6 µM (inactive)
OVCAR-5
  GI50: > 100 µM (inactive)
MDA-N
  GI50: > 100 µM (inactive)
HT-29
  GI50: 63.4 µM (inactive)
SNB-19
  GI50: > 100 µM (inactive)
UACC-62
  GI50: > 100 µM (inactive)
SN12C
  GI50: > 100 µM (inactive)
HCC 2998
  GI50: > 100 µM (inactive)
LOX IMVI
  GI50: 62.1 µM (inactive)
SW-620
  GI50: > 100 µM (inactive)
IGROV-1
  GI50: 81.8 µM (inactive)
HOP-62
  GI50: 79.6 µM (inactive)
CAKI-1
  GI50: > 100 µM (inactive)
DU-145
  GI50: 88.9 µM (inactive)
KM12
  GI50: 55.7 µM (inactive)
786-0
  GI50: > 100 µM (inactive)
SF-268
  GI50: > 100 µM (inactive)
NCI-H460
  GI50: > 100 µM (inactive)
NCI-H226
  GI50: 50.5 µM (inactive)
MDA-MB-231
  GI50: > 100 µM (inactive)
UACC-257
  GI50: > 100 µM (inactive)
OVCAR-4
  GI50: 44.6 µM (inactive)
MCF7
  GI50: 56.8 µM (inactive)
A549
  GI50: 71.4 µM (inactive)
OVCAR-8
  GI50: 56.5 µM (inactive)
MDA-MB-435
  GI50: > 100 µM (inactive)
EKVX
  GI50: 85.9 µM (inactive)
HCT-116
  GI50: 59 µM (inactive)
SR
  GI50: > 100 µM (inactive)
ACHN
  GI50: > 100 µM (inactive)
MOLT-4
  GI50: 16.2 µM (inactive)
NCI-H522
  GI50: 36.8 µM (inactive)
A498
  GI50: > 100 µM (inactive)
HCT-15
  GI50: > 100 µM
SF-295
  GI50: 76 µM (inactive)
K562
  GI50: 43.5 µM (inactive)
NCI/ADR-RES
  GI50: > 100 µM (inactive)
BT-549
  GI50: > 100 µM (inactive)
HOP-92
  GI50: > 100 µM (inactive)
Malme-3M
  GI50: > 100 µM (inactive)
UO-31
  GI50: > 100 µM (inactive)
CCRF-CEM
  GI50: 19 µM (inactive)
NCI-H23
  GI50: > 100 µM (inactive)
OVCAR-3
  GI50: 17.8 µM (inactive)
U-251
  GI50: 52.8 µM (inactive)
M14
  GI50: > 100 µM (inactive)
Hs-578T
  GI50: > 100 µM (inactive)
TK-10
  GI50: > 100 µM (inactive)
PC-3
  GI50: 59.4 µM (inactive)
RXF 393
  GI50: > 100 µM (inactive)
COLO 205
  GI50: 67.3 µM (inactive)

## CC(O)C(O)C(O)C(/C=N\Nc1ccccc1)=N/Nc1ccccc1 (stereo unspecified)
T47D
  GI50: 6.21 µM (inactive)
SF-539
  GI50: 15.1 µM (inactive)
SK-MEL-28
  GI50: 16.6 µM (inactive)
SNB-75
  GI50: 16.7 µM (inactive)
SK-OV-3
  GI50: 15.6 µM (inactive)
HL-60
  GI50: 12.6 µM (inactive)
RPMI-8226
  GI50: 18.3 µM (inactive)
SK-MEL-5
  GI50: 15.1 µM (inactive)
OVCAR-5
  GI50: 13.9 µM (inactive)
MDA-N
  GI50: 12.6 µM (inactive)
HT-29
  GI50: 15.9 µM (inactive)
SNB-19
  GI50: 15.7 µM (inactive)
UACC-62
  GI50: 10 µM (inactive)
SN12C
  GI50: 16 µM (inactive)
SK-MEL-2
  GI50: 8.63 µM (inactive)
HCC 2998
  GI50: 10.8 µM (inactive)
LOX IMVI
  GI50: 4.58 µM (inactive)
SW-620
  GI50: 11.6 µM (inactive)
IGROV-1
  GI50: 8.49 µM (inactive)
HOP-62
  GI50: 14.4 µM (inactive)
CAKI-1
  GI50: 2.18 µM (inactive)
DU-145
  GI50: 15.1 µM (inactive)
KM12
  GI50: 4.7 µM (inactive)
786-0
  GI50: 14.2 µM (inactive)
SF-268
  GI50: 10.2 µM (inactive)
NCI-H460
  GI50: 10.7 µM (inactive)
MDA-MB-231
  GI50: 12.3 µM (inactive)
MCF7
  GI50: 10.5 µM (inactive)
A549
  GI50: 11.4 µM (inactive)
OVCAR-8
  GI50: 13.2 µM (inactive)
MDA-MB-435
  GI50: 13.4 µM (inactive)
EKVX
  GI50: 12.1 µM (inactive)
HCT-116
  GI50: 15.3 µM (inactive)
SR
  GI50: 17.3 µM (inactive)
ACHN
  GI50: 10.8 µM (inactive)
MOLT-4
  GI50: 18.7 µM (inactive)
NCI-H522
  GI50: 8.09 µM (inactive)
A498
  GI50: 9.02 µM (inactive)
HCT-15
  GI50: 12.4 µM
SF-295
  GI50: 11.6 µM (inactive)
K562
  GI50: 6.78 µM (inactive)
NCI/ADR-RES
  GI50: 11.2 µM (inactive)
BT-549
  GI50: 13.7 µM (inactive)
HOP-92
  GI50: 14.7 µM (inactive)
Malme-3M
  GI50: 20 µM (inactive)
UO-31
  GI50: 12.2 µM (inactive)
CCRF-CEM
  GI50: 18.5 µM (inactive)
NCI-H23
  GI50: 11.9 µM (inactive)
OVCAR-3
  GI50: 8.55 µM (inactive)
U-251
  GI50: 13.9 µM (inactive)
M14
  GI50: 13.3 µM (inactive)
Hs-578T
  GI50: 11 µM (inactive)
TK-10
  GI50: 12.6 µM (inactive)
PC-3
  GI50: 15.8 µM (inactive)
COLO 205
  GI50: 14.3 µM (inactive)
